Reference: patent US10611748B2, “Xanthone derivatives for the treatment of hepatitis B virus disease” (Hoffmann-La Roche Inc., priority 2017, dated 2020)

How the values were obtained:
[1] = system: extracellular HBsAg level in HBV-infected PHH; experiment: Cryopreserved primary human hepatocytes (PHH) assay, HBsAg; format: cell-based; conditions: Hepatitis B virus, Hepatocyte, 216 h, read-out: HBsAg IC50
Description: Cryopreserved PHH (BioreclamationIVT, Lot YJM) was thawed at 37° C. and gently transferred into pre-warmed InVitroGRO HT medium (BioreclamationIVT, Cat. S03317). The mixture was centrifuged at 70 relative centrifugal force (RCF) for 3 minutes at RT, and the supernatant was discarded. Pre-warmed InVitroGRO CP medium (BioreclamationIVT, Cat # S03316) was added to the cell pellet to gently re-suspend cells. The cells were seeded at the density of 5.8×10^4 cells per well to collagen I coated 96-well plate (Gibco, Cat. A1142803) with the InVitroGRO CP medium. All plates were incubated at 37° C. with 5% CO2 and 85% humidity.
At 20 hours after plating, the medium was changed to PHH culture medium (Dulbecco's Modified Eagle Medium (DMEM)/F12 (1:1) (Gibco, Cat. 11320-033), 10% fetal bovine serum (Gibco Cat. 10099141), 100 U/mL penicillin, 100 μg/mL streptomycin (Gibco, Cat. 151401-122), 5 ng/mL human epidermal growth factor (Invitrogen Cat. PHG0311L), 20 ng/mL dexamethasone (Sigma, Cat. D4902) and 250 ng/mL human recombinant insulin (Gibco, Cat. 12585-014)). And the cells were incubated at 37° C. with 5% CO2 and 85% humidity for 4 hours. The medium was then changed to pre-warmed PHH culture medium containing 4% polyethylene glycol (PEG) MW8000 (Sigma, Cat. P1458-50ML) and 1% DMSO (Sigma, Cat. D2650). 5.8×10^6 genomic equivalents of HBV were added into the medium.
At 24 hours post-infection, the cells were gently washed with PBS and refreshed with PHH culture medium supplemented with 1% DMSO, and 0.25 mg/mL Matrix gel (Corning, Cat. 356237) at 200 μL per well. All plates were immediately placed in at 37° C. CO2 incubator.
24 hours later, serial dilutions of compounds made with DMSO were further diluted with the same culture medium (PHH culture medium supplemented with 1% DMSO and 0.25 mg/mL Matrix gel as described above) before they were added to the cells to reach desired final compound concentrations and 1% DMSO concentration. The medium containing the compounds were refreshed every three days.
At 9 days post-compound treatment, extracellular HBsAg level were measured with Chemiluminescence Immuno Assay (CLIA) kit (Autobio, HBsAg Quantitative CLIA). Extracellular HBV DNA was extracted by MagNA Pure 96 system (Roche) and then determined by quantitative PCR with the following primers and probe: HBV-Forward Primer (SEQ ID NO:2): […] (5′ to 3′); HBV-Reverse Primer (SEQ ID NO:3): […](5′ to 3′); HBV-Probe: 5′+tetramethylrhodamine+SEQ ID NO:4+black hole quencher 2-3′, wherein SEQ ID NO:4 is […].
HBsAg IC50 and HBV DNA IC50 values were derived from the dose-response curve using 4 parameter logistic curve fit method.

[2] = system: cccDNA level in HepDES19 cells; experiment: cccDNA Southern Blot assay; format: cell-based, HBV; conditions: 5 days' compound treatment, Hirt DNA, serial dilutions
Description: HepDES19 cells were seeded at 4×10^6 cells per T150 in the culture medium (Dulbecco's Modified Eagle Medium: Nutrient Mixture F-12 (DMEM:F12, Gibco Cat. 11320-82), 10% Fetal Bovine Serum (FBS, Clontech Cat. 631101), 0.1 mM Non-Essential Amino Acids Solution (NEAA, Gibco Cat. 11140-050), […] Penicillin-Streptomycin (PS, Invitrogen Cat. 15140-163), 500 μg/mL Geneticin (G418, Invitrogen Cat. 10131-027) in the absence of Tet for 8 days. These cells were seeded at the density of 1×10^6 cells per well in 6-well plate. At 24 hrs after seeding, serial dilutions of compounds made with DMSO (Sigma, Cat. D2650) were further diluted with the same culture medium as described above before they were added to the cells to reach desired final compound concentrations and 1% DMSO concentration. After 5 days' compound treatment, the cells growing in one well from 6-well plate were re-suspended with 500 μL re-suspension buffer (50 mM tris[hydroxymethyl]aminomethane pH 7.5), 10 mM ethylenediaminetetraacetic acid (EDTA), 50 μg/mL RNase A (Qiagen, Cat. 158922). 500 μL of 1.2% sodium dodecyl sulfate (SDS) was then added into the re-suspended cells to lyse the cells. After 15 minutes' incubation, 700 μL precipitation buffer (3M cesium chloride, 1M potassium acetate, 0.67M acetic acid) was added and the lysate was incubated at 4° C. for 2 h. The lysate was centrifuged at 15000 revolutions per minute (RPM) at 4° C. for 15 minutes. The supernatant was collected and loaded onto Qiagen miniprep columns (QIAprep spin Mini prep kit, Cat. No. 27016). After centrifugation for 1 minute at 15000 RPM, the column was washed once with 750 µL wash buffer PE from QIAprep spin Mini prep kit. 80 μL of double distilled water was loaded to the columns to elute Hirt DNA.
Hirt DNA of each sample was loaded into 1.2% lx tris-acetate electrophoresis (TAE) agarose gel and separated at 90 voltages for 3 hours. The gel was then treated in 50 mM NaAc—HAc, pH4.2 for 30 min at room temperature (RT), and then denatured by soaking in denaturation buffer (0.5 M sodium hydroxide, 1.5 M sodium chloride) at RT for 30-45 min. The gel was then treated with neutralization buffer (1M tris[hydroxymethyl]aminomethane pH7.4 and 1.5M NaCl) at RT for 30 to 45 min.
The gel was transferred onto a pre-wet Nylon membrane (GE life science, Hybond N+) by capillary transfer method overnight, followed by UV crosslinking. The membrane was transferred into a hybridization tube, then rinsed with double distilled water at 60° C. for 5 mins. 10 mL of hybridization buffer (Lab kits, China) was added, the resulting sample was rotated in hybridization oven at 60° C. for 1 hour. Digoxigenin (DIG)-labelled HBV probe (SEQ ID NO: 1) was denatured at 95° C. for 10 minutes, and then 7 μL of denatured probe was added to the hybridization tube, which was rotated in hybridization oven at 60° C. overnight.
On the second day, the membrane was washed according to the procedure of DIG wash and block buffer set kit (Roche, Cat. 11 585 762 001), and then incubated with 50 mL antibody solution (Antibody anti-Digoxigenin-AP Fab fragment (Roche Cat. 11093274910) diluted in fresh 1× blocking buffer at 1:10,000) for 1 hour. The membrane was washed with 50 mL washing buffer (1× Maleic buffer with 0.3% Tween-20) for 15 minutes twice, and equilibrated with 20 mL detection buffer (0.1M tris[hydroxymethyl]aminomethane pH9.5, 0.1M sodium chloride) for 5 minutes. CDP-Star substrate (Roche, Cat. 12041677001) was added to the membrane for 5 minutes, and then the membrane was scanned by Bio-Rad Visualize Image System (Biorad, ChemiDoc-MP, Serial No. 731BR00916).

O=C(O)[C@H]1CCN(c2ccc3c(=O)c4cccc(Cl)c4oc3c2)C1 [Example 4, (3S)-1-(5-chloro-9-oxo-xanthen-3-yl)pyrrolidine-3-carboxylic acid]
IC50 [1]: 1580 nM | cccDNA level in HepDES19 cells (Southern Blot) [2]: dose-dependently reduced cccDNA level

O=C(O)[C@@H]1CCN(c2ccc3c(=O)c4cccc(Cl)c4oc3c2)C1 [Example 3, (3R)-1-(5-chloro-9-oxo-xanthen-3-yl)pyrrolidine-3-carboxylic acid]
IC50 [1]: 1640 nM | cccDNA level in HepDES19 cells (Southern Blot) [2]: dose-dependently reduced cccDNA level

O=C(O)C1CCN(c2ccc3c(=O)c4cccc(Cl)c4oc3c2)C1 (stereo not shown) [Example 2, 1-(5-chloro-9-oxo-xanthen-3-yl)pyrrolidine-3-carboxylic acid]
IC50 [1]: 1330 nM | cccDNA level in HepDES19 cells (Southern Blot) [2]: dose-dependently reduced cccDNA level

O=C(O)C1CCN(c2ccc3c(=O)c4cccc(F)c4oc3c2)C1 (stereo not shown) [Example 5, 1-(5-fluoro-9-oxo-xanthen-3-yl)pyrrolidine-3-carboxylic acid]
IC50 [1]: 17800 nM | cccDNA level in HepDES19 cells (Southern Blot) [2]: dose-dependently reduced cccDNA level

O=C(O)C1CCN(c2ccc3c(=O)c4c(Cl)ccc(Cl)c4oc3c2)C1 (stereo not shown) [Example 26, 1-(5,8-dichloro-9-oxo-xanthen-3-yl)pyrrolidine-3-carboxylic Acid]
IC50 [1]: 1170 nM | cccDNA level in HepDES19 cells (Southern Blot) [2]: dose-dependently reduced cccDNA level
